Measurements reported in ChEMBL document CHEMBL4808180, “Identification of 2,2-Dimethylbutanoic Acid (HST5040), a Clinical Development Candidate for the Treatment of Propionic Acidemia and Methylmalonic Acidemia” (J Med Chem, 2021).
Calls of active or inactive are those of the source. The calls are words filed in the database; no cut-off is given here.

How the values were obtained:
[1] = Reduction of propionyl-CoA in human hepatocytes derived from propionic acidemia patient at 100 uM pretreated for 30 mins followed by 13C-isoleucine addition and measured after 1 hr by MS/MS analysis relative to control; assay type: functional, Hepatocyte; design: scale not given: the % may be the effect or the level left; conditions: time 90 min, 1.5 h
[2] = Reduction of propionyl-CoA in human hepatocytes derived from propionic acidemia patient at 30 uM pretreated for 30 mins followed by 13C-isoleucine addition and measured after 1 hr by MS/MS analysis relative to control; assay type: functional, Hepatocyte; design: scale not given: the % may be the effect or the level left; conditions: time 90 min, 1.5 h
[3] = Reduction of propionyl-CoA in human hepatocytes derived from methylmalonic acidemia pretreated for 30 mins followed by 13C-isoleucine addition and measured after 1 hr by MS/MS analysis; assay type: functional, cell-based; conditions: hepatocyte
[4] = Reduction of acetyl carnitine in human hepatocytes derived from propionic acidemia patient pretreated for 30 mins followed by 13C-isoleucine addition and measured after 1 hr by MS/MS analysis; assay type: functional, cell-based; conditions: hepatocyte
[5] = Reduction of acetyl carnitine in human hepatocytes derived from propionic acidemia patient at 30 uM pretreated for 30 mins followed by 13C-isoleucine addition and measured after 1 hr by MS/MS analysis relative to control; assay type: functional, Hepatocyte; design: scale not given: the % may be the effect or the level left; conditions: time 90 min, 1.5 h
[6] = Reduction of acetyl carnitine in human hepatocytes derived from methylmalonic acidemia patient at 30 uM pretreated for 30 mins followed by 13C-isoleucine addition and measured after 1 hr by MS/MS analysis; assay type: functional, Hepatocyte; design: scale not given: the % may be the effect or the level left; conditions: time 90 min, 1.5 h
[7] = Reduction of CoASH in human hepatocytes derived from methylmalonic acidemia patient pretreated for 30 mins followed by 13C-isoleucine addition and measured after 1 hr by MS/MS analysis; assay type: functional, cell-based; conditions: hepatocyte
[8] = Drug metabolism in human hepatocytes assessed as formation of 2,2-dimethylbutanoic acid-CoA pretreated for 30 mins followed by 13C-isoleucine addition and measured after 1 hr by MS/MS analysis relative to control; assay type: ADME, cell-based; conditions: Hepatocyte
[9] = Apparent permeability of the compound across apical to basal side in human Caco-2 cells; assay type: ADME, cell-based
[10] = Solubility in pH 7-buffered water; assay type: physicochemical
[11] = Protein binding in Gottingen minipig plasma at 40 uM incubated for 4 hrs by equilibrium dialysis; assay type: ADME, cell-free, Sus scrofa domesticus; conditions: pig, read-out: PPB (converted)
OAT1 = biological target: T1, OAT1 (Homo sapiens, UniProt Q4U2R8); assay: Inhibition of human OAT1 assessed as reduction in OAT1-mediated tenofovir transport at 14900 uM relative to control; conditions: not told, probe tenofovir
T1 sequence (Q4U2R8 whole entry): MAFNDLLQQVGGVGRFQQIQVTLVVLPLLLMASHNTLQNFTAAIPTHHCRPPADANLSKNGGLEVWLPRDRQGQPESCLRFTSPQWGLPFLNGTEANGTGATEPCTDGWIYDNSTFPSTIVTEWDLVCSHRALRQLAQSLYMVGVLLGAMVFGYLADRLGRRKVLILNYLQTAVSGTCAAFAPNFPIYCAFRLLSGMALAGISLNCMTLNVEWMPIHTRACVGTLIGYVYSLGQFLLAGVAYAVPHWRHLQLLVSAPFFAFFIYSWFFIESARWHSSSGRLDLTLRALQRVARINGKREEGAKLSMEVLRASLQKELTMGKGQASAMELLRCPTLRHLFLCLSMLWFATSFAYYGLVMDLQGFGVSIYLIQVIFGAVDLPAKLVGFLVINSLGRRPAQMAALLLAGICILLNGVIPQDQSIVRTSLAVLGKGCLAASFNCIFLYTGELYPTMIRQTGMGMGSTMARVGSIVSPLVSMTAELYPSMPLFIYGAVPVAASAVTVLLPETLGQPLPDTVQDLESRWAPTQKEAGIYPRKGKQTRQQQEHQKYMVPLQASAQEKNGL

[12] = Ratio of drug level in erythrocyte to plasma in Sprague-Dawley rat; assay type: ADME; conditions: erythrocytes and plasma
[13] = AUC (0 to infinity) in CD1 mouse at 30 mg/kg, iv; assay type: ADME, organism-based; design: time infinity, route intravenous, dose 30 mg/kg; conditions: in vivo
[14] = AUC (0 to infinity) in CD1 mouse at 100 mg/kg, po; assay type: ADME, organism-based; design: route oral, time infinity, dose 100 mg/kg; conditions: in vivo
[15] = Cmax in Sprague-Dawley rat at 10 mg/kg, po; assay type: ADME, organism-based; design: route oral, dose 10 mg/kg; conditions: in vivo
[16] = Cmax in Sprague-Dawley rat at 50 mg/kg, po; assay type: ADME, organism-based; design: route oral, dose 50 mg/kg; conditions: in vivo
[17] = Tmax in Sprague-Dawley rat at 10 mg/kg, po; assay type: ADME, organism-based; conditions: in vivo
[18] = Half life in Sprague-Dawley rat at 50 mg/kg, po; assay type: ADME, organism-based; conditions: in vivo
[19] = Clearance in Sprague-Dawley rat at 10 mg/kg, iv; assay type: ADME, organism-based; conditions: in vivo
[20] = AUC (0 to infinity) in Sprague-Dawley rat at 200 mg/kg, po; assay type: ADME, organism-based; design: route oral, time infinity, dose 200 mg/kg; conditions: in vivo
[21] = Oral bioavailability in Sprague-Dawley rat at 10 mg/kg; assay type: ADME, organism-based; conditions: in vivo
[22] = Oral bioavailability in Sprague-Dawley rat at 50 mg/kg; assay type: ADME, organism-based; conditions: in vivo
[23] = Half life in Sprague-Dawley rat plasma at 10 mg/kg, po using radiolabeled compound by quantitative whole-body autoradiography; assay type: ADME, organism-based; conditions: in vivo
[24] = Drug excretion in Sprague-Dawley rat urine at 10 mg/kg, po using radiolabeled compound measured at 1 hr post dose; assay type: ADME, organism-based; conditions: in vivo
Hepatocyte = assay: Cytotoxicity against human hepatocytes assessed as reduction in cell viability using radiolabeled compound; assay type: cell-based
[25] = Stability in rat hepatocytes assessed as unchanged compound at 50 uM measured after 4 hrs; assay type: ADME, cell-based, Hepatocyte; conditions: read-out: Stabilty
[26] = Drug metabolism in Sprague-Dawley rat plasma assessed as HST5040-glycine metabolite formation at 10 mg/kg administered as single dose using radiolabeled compound by LC/MS analysis; assay type: ADME, organism-based; conditions: in vivo
[27] = Drug metabolism in Sprague-Dawley rat urine assessed as HST5040-glucuronide metabolite formation at 10 mg/kg administered as single dose by LC/MS analysis; assay type: ADME, organism-based; conditions: in vivo
[28] = Drug metabolism in Sprague-Dawley rat urine assessed as HST5040-carnitine metabolite formation at 10 mg/kg administered as single dose by LC/MS analysis; assay type: ADME, organism-based; conditions: in vivo
[29] = Drug metabolism in Sprague-Dawley rat urine assessed as HST5040-glycine metabolite formation at 10 mg/kg administered as single dose by LC/MS analysis; assay type: ADME, organism-based; conditions: in vivo
[30] = Drug metabolism in Gottingen minipig urine assessed as HST5040-carnitine metabolite formation at 10 mg/kg administered as single dose by LC/MS analysis; assay type: ADME, organism-based, Sus scrofa domesticus; conditions: pig, in vivo
[31] = Drug metabolism in Gottingen minipig plasma assessed as HST5040-glycine metabolite formation at 10 mg/kg administered as single dose by LC/MS analysis; assay type: ADME, organism-based, Sus scrofa domesticus; conditions: pig, in vivo
[32] = Drug metabolism in rat hepatocytes assessed as beta-oxidation by measuring phase1 metabolite formation at 50 uM measured after 4 hrs; assay type: ADME, cell-based, Hepatocyte
Bile salt export pump = Bile salt export pump (Homo sapiens, UniProt O95342); assay: Inhibition of human BSEP assessed as reduction in BSEP-mediated taurocholate transport at 345 uM relative to control
[33] = Drug metabolism in minipig assessed as beta-oxidation by measuring phase1 metabolite formation at 10 mg/kg administered single dose using radiolabeled compound; assay type: ADME, organism-based, Sus scrofa domesticus; conditions: pig, in vivo
[34] = biological target: Solute carrier family 22 member 1 (Homo sapiens) (UniProt O15245); assay: Inhibition of human OCT1 assessed as reduction in OCT1-mediated metformin transport at 14900 uM relative to control
Chain of Solute carrier family 22 member 1 (Homo sapiens) (O15245 whole entry, looked up): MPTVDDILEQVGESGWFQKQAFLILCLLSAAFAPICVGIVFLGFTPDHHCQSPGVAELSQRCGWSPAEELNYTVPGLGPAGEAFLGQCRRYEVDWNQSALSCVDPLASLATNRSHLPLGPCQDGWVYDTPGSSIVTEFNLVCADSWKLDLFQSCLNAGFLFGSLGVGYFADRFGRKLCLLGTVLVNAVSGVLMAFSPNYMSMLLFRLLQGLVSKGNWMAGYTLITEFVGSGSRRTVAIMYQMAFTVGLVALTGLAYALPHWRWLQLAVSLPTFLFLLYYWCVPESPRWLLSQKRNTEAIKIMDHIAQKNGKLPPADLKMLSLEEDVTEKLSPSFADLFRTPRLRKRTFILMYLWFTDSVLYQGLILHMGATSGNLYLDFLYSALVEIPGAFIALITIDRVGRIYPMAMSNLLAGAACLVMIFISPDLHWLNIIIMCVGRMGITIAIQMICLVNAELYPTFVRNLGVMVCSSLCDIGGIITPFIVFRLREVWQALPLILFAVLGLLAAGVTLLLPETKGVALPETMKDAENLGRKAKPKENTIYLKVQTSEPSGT

Chain of Bile salt export pump (O95342 whole entry): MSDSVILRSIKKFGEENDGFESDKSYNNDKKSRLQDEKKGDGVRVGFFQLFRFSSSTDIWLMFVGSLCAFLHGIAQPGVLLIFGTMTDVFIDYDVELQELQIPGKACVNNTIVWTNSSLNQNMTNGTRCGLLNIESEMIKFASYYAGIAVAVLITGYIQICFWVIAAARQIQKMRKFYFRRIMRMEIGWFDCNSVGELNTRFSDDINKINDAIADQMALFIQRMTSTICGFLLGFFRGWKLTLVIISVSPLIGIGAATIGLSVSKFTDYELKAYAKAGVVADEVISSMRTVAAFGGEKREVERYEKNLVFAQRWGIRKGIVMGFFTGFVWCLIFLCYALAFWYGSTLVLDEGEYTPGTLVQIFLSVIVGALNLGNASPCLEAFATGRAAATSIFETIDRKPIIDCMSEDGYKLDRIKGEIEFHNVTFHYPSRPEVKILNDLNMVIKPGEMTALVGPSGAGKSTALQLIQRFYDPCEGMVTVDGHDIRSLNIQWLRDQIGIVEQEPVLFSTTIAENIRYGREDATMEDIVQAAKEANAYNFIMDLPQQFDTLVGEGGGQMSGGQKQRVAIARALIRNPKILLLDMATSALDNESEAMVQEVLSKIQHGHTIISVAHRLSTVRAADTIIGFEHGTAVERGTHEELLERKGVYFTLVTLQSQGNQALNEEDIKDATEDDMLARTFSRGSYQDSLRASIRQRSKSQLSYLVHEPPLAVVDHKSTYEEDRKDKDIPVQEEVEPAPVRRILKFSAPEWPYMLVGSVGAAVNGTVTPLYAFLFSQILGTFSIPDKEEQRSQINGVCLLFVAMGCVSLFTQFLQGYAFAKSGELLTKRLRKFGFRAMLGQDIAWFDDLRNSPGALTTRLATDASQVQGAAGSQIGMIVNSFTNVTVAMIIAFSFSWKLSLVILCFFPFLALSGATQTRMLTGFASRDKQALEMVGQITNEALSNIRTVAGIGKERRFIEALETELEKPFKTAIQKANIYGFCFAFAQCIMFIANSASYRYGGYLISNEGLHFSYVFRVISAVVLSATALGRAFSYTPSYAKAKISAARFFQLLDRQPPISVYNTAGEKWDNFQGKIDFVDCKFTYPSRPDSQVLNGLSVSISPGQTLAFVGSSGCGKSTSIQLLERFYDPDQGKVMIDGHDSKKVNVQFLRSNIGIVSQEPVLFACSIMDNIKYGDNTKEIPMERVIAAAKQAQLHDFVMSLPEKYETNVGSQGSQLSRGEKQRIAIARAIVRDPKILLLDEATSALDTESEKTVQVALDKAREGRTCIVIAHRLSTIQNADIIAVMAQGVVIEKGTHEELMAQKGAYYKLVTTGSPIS

Q: With `CCC(C)(C)C(=O)O` [DIMEBUTIC ACID] as the molecule, how does the Activity [1] read?
A: The Activity was 87%.

Q: What about the Activity [2] of the same molecule?
A: Its Activity is -78.8%.

Q: What about the EC50 [3] of the same molecule?
A: The EC50 was 2.1 µM.

Q: What about the EC50 [4] of the same molecule?
A: The EC50 was 4.8 µM.

Q: What about the Activity [5] of the same molecule?
A: Its Activity is 54%.

Q: And the Activity [6]?
A: Its Activity is 44.6%.

Q: What about the EC50 [7] of the same molecule?
A: Its EC50 is 14.1 µM.

Q: What about the EC50 [8] of the same molecule?
A: Its EC50 is 8.3 µM.

Q: What about the Papp A→B [9] of the same molecule?
A: The Papp A→B was over 20 ×10⁻⁶ cm/s.

Q: What about the solubility [10] of the same molecule?
A: Its solubility is over 50 mg/mL.

Q: What about the fraction unbound at 4 h, 40 µM [11] of the same molecule?
A: The fraction unbound at 4 h, 40 µM was 0.55.

Q: And the inhibition at 14900 µM (OAT1)?
A: Its inhibition at 14900 µM is 83.2%.

Q: What about the Kp [12] of the same molecule?
A: The Kp was 0.649.

Q: What about the AUC(0-inf) [13] of the same molecule?
A: Its AUC(0-inf) is 70.2 µg·h/mL.

Q: And the AUC(0-inf) [14]?
A: The AUC(0-inf) was 219 µg·h/mL.

Q: And the Cmax [15]?
A: Its Cmax is 4270 ng/mL.

Q: What about the Cmax [16] of the same molecule?
A: The Cmax was 21900 ng/mL.

Q: What about the Tmax [17] of the same molecule?
A: The Tmax was 0.25 h.

Q: And the half-life [18]?
A: The half-life was 3.27 h.

Q: What about the clearance [19] of the same molecule?
A: Its clearance is 17.3 mL/min/kg.

Q: And the AUC(0-inf) [20]?
A: Its AUC(0-inf) is 244 µg·h/mL.

Q: And the bioavailability [21]?
A: The bioavailability was 57.1%.

Q: What about the bioavailability [22] of the same molecule?
A: Its bioavailability is 68.3%.

Q: And the t1/2 [23]?
A: Its t1/2 is 2.4 h.

Q: What about the Drug excretion [24] of the same molecule?
A: The Drug excretion was 72%.

Q: What about the Activity (Hepatocyte) of the same molecule?
A: Its Activity is “Non-Toxic”.

Q: What about the remaining at 4 h, 50 µM [25] of the same molecule?
A: Its remaining at 4 h, 50 µM is 86%.

Q: And the Drug metabolism [26]?
A: The Drug metabolism was “Metabolite_Detected”.

Q: And the Drug metabolism [27]?
A: The Drug metabolism was “Metabolite_Detected”.

Q: What about the Drug metabolism [28] of the same molecule?
A: Its Drug metabolism is “Metabolite_Detected”.

Q: And the Drug metabolism [29]?
A: The Drug metabolism was “Metabolite_Detected”.

Q: What about the Drug metabolism [30] of the same molecule?
A: The Drug metabolism was “Metabolite_Detected”.

Q: And the Drug metabolism [31]?
A: The Drug metabolism was “Metabolite_Detected”.

Q: What about the Drug metabolism [32] of the same molecule?
A: Its Drug metabolism is “Metabolite_Notdetected”.

Q: What about the “inhibition (INH)” value (Bile salt export pump) of the same molecule?
A: Its value is “Not Active”.

Q: And the Drug metabolism [33]?
A: The Drug metabolism was “Metabolite_Notdetected”.

Q: And the inhibition [34]?
A: The inhibition was “inactive”.
